Experimental data taken from US9630977B2, “Cephalosporin derivatives and pharmaceutical compositions thereof” (Legochem Biosciences, Inc., priority 2011, dated 2017).
In brackets after ≈: the same amount, converted by molar mass.

Each compound was assayed on P. aeruginosa 37 (assay: In vitro antibacterial activity test (broth microdilution)). Details: Pseudomonas aeruginosa, 37, P. aeruginosa 37; read-out: MIC90.
Format: cell-based
Experimental: (§1) To evaluate antibacterial activity of each of the compounds of Examples 1 to 68, in vitro antibacterial activity test was performed.
(§2) The in vitro antibacterial activity was evaluated by measuring MIC90 (ug/mL) of each of the compounds of Examples 1 to 68, which is defined as the lowest concentration of an antibiotic that will inhibit the visible growth of 90% of microorganisms after incubation as compared with a control group to which the antibiotic is not treated. MIC90 values were measured by the broth microdilution method developed by the Clinical and Laboratory Standards Institute (CLSI) (see CLSI M7-A5, Methods for Dilution Antimicrobial Susceptibility Test for Bacteria that Grow Aerobically-Fifth Edition (2000): CLSI, Villanova, Pa.).
(§3) In vitro antibacterial activity was measured with respect to the following 19 clinical isolates: M. catarrhalis; P. aeruginosa (5 strains); K. pneumoniae (6 strains); A. baumannii (3 strains); E. coli (2 strains); A. calcoaceticus; and E. cloacae.
(§4) Test compounds each (the cephalosporin derivative compounds prepared in Examples 1 to 68) were dissolved in DMSO at the concentration of 10,240 ug/mL, were diluted by two fold with DMSO, and then were diluted by twenty fold with sterilized distilled water. The final concentration in the antibacterial activity test was in the range of […] to 128 ug/mL, and the final concentration of DMSO used as an adjuvant was 2.5% (V/V).
Compound `CC(C)(O/N=C(\C(=O)N[C@@H]1C(=O)N2C(C(=O)[O-])=C(C[n+]3cnc(N)c(NC(=O)CCNC(=O)c4ccc(O)c(O)c4)c3)CSC12)c1csc(N)n1)C(=O)O` (some centres unmarked) [Compound 28] has an MIC90 of 8 mg/L (≈ 10.2 µM).
`CN(CCNc1c[n+](CC2=C(C(=O)[O-])N3C(=O)[C@@H](NC(=O)/C(=N\OC(C)(C)C(=O)O)c4csc(N)n4)C3SC2)cnc1N)Cc1ccc(O)c(O)c1` (some centres unmarked) [Compound 29] was tested, and the MIC90 was 2 mg/L (≈ 2.64 µM).

What follows are compounds tested on M. catarrhalis 2524 in the same assay as above. Details: Moraxella catarrhalis; M. catarrhalis 2524; read-out: MIC90.
Format: cell-based
Experimental: as §1, §2, §3, §4
In the case of `CC(C)(O/N=C(\C(=O)N[C@@H]1C(=O)N2C(C(=O)[O-])=C(C[n+]3cnc(N)c(NC(=O)CCNC(=O)c4ccc(O)c(O)c4)c3)CSC12)c1csc(N)n1)C(=O)O` (some centres unmarked) [Compound 28], the MIC90 is reported as 8 mg/L (≈ 10.2 µM).

Each compound was assayed on E. coli β4 in the same assay as above. Details: Escherichia coli, read-out: MIC90.
Format: cell-based
Experimental: as §1, §2, §3, §4
For `CC(C)(O/N=C(\C(=O)N[C@@H]1C(=O)N2C(C(=O)[O-])=C(C[n+]3cnc(N)c(NC(=O)CCNC(=O)c4ccc(O)c(O)c4)c3)CSC12)c1csc(N)n1)C(=O)O` (some centres unmarked) [Compound 28], the MIC90 was 8 mg/L (≈ 10.2 µM).
Work on `CN(CCNc1c[n+](CC2=C(C(=O)[O-])N3C(=O)[C@@H](NC(=O)/C(=N\OC(C)(C)C(=O)O)c4csc(N)n4)C3SC2)cnc1N)Cc1ccc(O)c(O)c1` (some centres unmarked) [Compound 29] yielded an MIC90 of 2 mg/L (≈ 2.64 µM).

These compounds were tested on E. coli AG100 in the same assay as above. Details: Escherichia coli, AG100, E. coli AG100; read-out: MIC90.
Format: cell-based
Experimental: as §1, §2, §3, §4
`CC(C)(O/N=C(\C(=O)N[C@@H]1C(=O)N2C(C(=O)[O-])=C(C[n+]3cnc(N)c(NC(=O)CCNC(=O)c4ccc(O)c(O)c4)c3)CSC12)c1csc(N)n1)C(=O)O` (some centres unmarked) [Compound 28] gave an MIC90 greater than 128 mg/L.
With `CN(CCNc1c[n+](CC2=C(C(=O)[O-])N3C(=O)[C@@H](NC(=O)/C(=N\OC(C)(C)C(=O)O)c4csc(N)n4)C3SC2)cnc1N)Cc1ccc(O)c(O)c1` (some centres unmarked) [Compound 29] the MIC90 was 2 mg/L (≈ 2.64 µM).

These compounds were tested on P. aeruginosa 43 in the same assay as above. Details: Pseudomonas aeruginosa; P. aeruginosa 43; read-out: MIC90.
Format: cell-based
Experimental: as §1, §2, §3, §4
Compound `CC(C)(O/N=C(\C(=O)N[C@@H]1C(=O)N2C(C(=O)[O-])=C(C[n+]3cnc(N)c(NC(=O)CCNC(=O)c4ccc(O)c(O)c4)c3)CSC12)c1csc(N)n1)C(=O)O` (some centres unmarked) [Compound 28] has an MIC90 of 4 mg/L (≈ 5.1 µM).
Work on `CN(CCNc1c[n+](CC2=C(C(=O)[O-])N3C(=O)[C@@H](NC(=O)/C(=N\OC(C)(C)C(=O)O)c4csc(N)n4)C3SC2)cnc1N)Cc1ccc(O)c(O)c1` (some centres unmarked) [Compound 29] yielded an MIC90 of 4 mg/L (≈ 5.29 µM).

What follows are compounds tested on E. cloacae β19 in the same assay as above. Details: Enterobacter cloacae, read-out: MIC90.
Format: cell-based
Experimental: as §1, §2, §3, §4
With `CC(C)(O/N=C(\C(=O)N[C@@H]1C(=O)N2C(C(=O)[O-])=C(C[n+]3cnc(N)c(NC(=O)CCNC(=O)c4ccc(O)c(O)c4)c3)CSC12)c1csc(N)n1)C(=O)O` (some centres unmarked) [Compound 28] the MIC90 was 128 mg/L (≈ 163 µM).
`CN(CCNc1c[n+](CC2=C(C(=O)[O-])N3C(=O)[C@@H](NC(=O)/C(=N\OC(C)(C)C(=O)O)c4csc(N)n4)C3SC2)cnc1N)Cc1ccc(O)c(O)c1` (some centres unmarked) [Compound 29] showed an MIC90 of 8 mg/L (≈ 10.6 µM).

Each compound was assayed on A. baumannii 46 in the same assay as above. Details: Acinetobacter baumannii; A. baumannii 46; read-out: MIC90.
Format: cell-based
Experimental: as §1, §2, §3, §4
For `CC(C)(O/N=C(\C(=O)N[C@@H]1C(=O)N2C(C(=O)[O-])=C(C[n+]3cnc(N)c(NC(=O)CCNC(=O)c4ccc(O)c(O)c4)c3)CSC12)c1csc(N)n1)C(=O)O` (some centres unmarked) [Compound 28], the MIC90 was 8 mg/L (≈ 10.2 µM).
`CN(CCNc1c[n+](CC2=C(C(=O)[O-])N3C(=O)[C@@H](NC(=O)/C(=N\OC(C)(C)C(=O)O)c4csc(N)n4)C3SC2)cnc1N)Cc1ccc(O)c(O)c1` (some centres unmarked) [Compound 29] was tested, and the MIC90 was 8 mg/L (≈ 10.6 µM).

Each compound was assayed on P. aeruginosa 6065Y in the same assay as above. Details: Pseudomonas aeruginosa, read-out: MIC90.
Format: cell-based
Experimental: as §1, §2, §3, §4
For `CC(C)(O/N=C(\C(=O)N[C@@H]1C(=O)N2C(C(=O)[O-])=C(C[n+]3cnc(N)c(NC(=O)CCNC(=O)c4ccc(O)c(O)c4)c3)CSC12)c1csc(N)n1)C(=O)O` (some centres unmarked) [Compound 28], the MIC90 was 16 mg/L (≈ 20.4 µM).
`CN(CCNc1c[n+](CC2=C(C(=O)[O-])N3C(=O)[C@@H](NC(=O)/C(=N\OC(C)(C)C(=O)O)c4csc(N)n4)C3SC2)cnc1N)Cc1ccc(O)c(O)c1` (some centres unmarked) [Compound 29] showed an MIC90 of 8 mg/L (≈ 10.6 µM).

These compounds were tested on K. pneumoniae β14 in the same assay as above. Details: Klebsiella pneumoniae, read-out: MIC90.
Format: cell-based
Experimental: as §1, §2, §3, §4
`CC(C)(O/N=C(\C(=O)N[C@@H]1C(=O)N2C(C(=O)[O-])=C(C[n+]3cnc(N)c(NC(=O)CCNC(=O)c4ccc(O)c(O)c4)c3)CSC12)c1csc(N)n1)C(=O)O` (some centres unmarked) [Compound 28] gave an MIC90 of 64 mg/L (≈ 81.6 µM).
Compound `CN(CCNc1c[n+](CC2=C(C(=O)[O-])N3C(=O)[C@@H](NC(=O)/C(=N\OC(C)(C)C(=O)O)c4csc(N)n4)C3SC2)cnc1N)Cc1ccc(O)c(O)c1` (some centres unmarked) [Compound 29] has an MIC90 of 16 mg/L (≈ 21.1 µM).

What follows are compounds tested on P. aeruginosa 1912E in the same assay as above. Details: Pseudomonas aeruginosa, 1912E, read-out: MIC90.
Format: cell-based
Experimental: as §1, §2, §3, §4
`CC(C)(O/N=C(\C(=O)N[C@@H]1C(=O)N2C(C(=O)[O-])=C(C[n+]3cnc(N)c(NC(=O)CCNC(=O)c4ccc(O)c(O)c4)c3)CSC12)c1csc(N)n1)C(=O)O` (some centres unmarked) [Compound 28] was tested, and the MIC90 was 32 mg/L (≈ 40.8 µM).
`CN(CCNc1c[n+](CC2=C(C(=O)[O-])N3C(=O)[C@@H](NC(=O)/C(=N\OC(C)(C)C(=O)O)c4csc(N)n4)C3SC2)cnc1N)Cc1ccc(O)c(O)c1` (some centres unmarked) [Compound 29] was tested, and the MIC90 was 2 mg/L (≈ 2.64 µM).

These compounds were tested on P. aeruginosa 40 in the same assay as above. Details: Pseudomonas aeruginosa, 40, P. aeruginosa 40; read-out: MIC90.
Format: cell-based
Experimental: as §1, §2, §3, §4
`CC(C)(O/N=C(\C(=O)N[C@@H]1C(=O)N2C(C(=O)[O-])=C(C[n+]3cnc(N)c(NC(=O)CCNC(=O)c4ccc(O)c(O)c4)c3)CSC12)c1csc(N)n1)C(=O)O` (some centres unmarked) [Compound 28] was tested, and the MIC90 was 16 mg/L (≈ 20.4 µM).
Compound `CN(CCNc1c[n+](CC2=C(C(=O)[O-])N3C(=O)[C@@H](NC(=O)/C(=N\OC(C)(C)C(=O)O)c4csc(N)n4)C3SC2)cnc1N)Cc1ccc(O)c(O)c1` (some centres unmarked) [Compound 29] has an MIC90 of 4 mg/L (≈ 5.29 µM).

What follows are compounds tested on A. calcoaceticus ATCC15473 in the same assay as above. Details: Acinetobacter calcoaceticus; A. calcoaceticus ATCC15473; read-out: MIC90.
Format: cell-based
Experimental: as §1, §2, §3, §4
For `CC(C)(O/N=C(\C(=O)N[C@@H]1C(=O)N2C(C(=O)[O-])=C(C[n+]3cnc(N)c(NC(=O)CCNC(=O)c4ccc(O)c(O)c4)c3)CSC12)c1csc(N)n1)C(=O)O` (some centres unmarked) [Compound 28], the MIC90 was 1 mg/L (≈ 1.27 µM).
`CN(CCNc1c[n+](CC2=C(C(=O)[O-])N3C(=O)[C@@H](NC(=O)/C(=N\OC(C)(C)C(=O)O)c4csc(N)n4)C3SC2)cnc1N)Cc1ccc(O)c(O)c1` (some centres unmarked) [Compound 29] showed an MIC90 of 4 mg/L (≈ 5.29 µM).

The compounds below were run on K. pneumoniae 2011E in the same assay as above. Details: Klebsiella pneumoniae, 2011E, K. pneumoniae 2011E; read-out: MIC90.
Format: cell-based
Experimental: as §1, §2, §3, §4
In the case of `CC(C)(O/N=C(\C(=O)N[C@@H]1C(=O)N2C(C(=O)[O-])=C(C[n+]3cnc(N)c(NC(=O)CCNC(=O)c4ccc(O)c(O)c4)c3)CSC12)c1csc(N)n1)C(=O)O` (some centres unmarked) [Compound 28], the MIC90 is reported as 8 mg/L (≈ 10.2 µM).
`CN(CCNc1c[n+](CC2=C(C(=O)[O-])N3C(=O)[C@@H](NC(=O)/C(=N\OC(C)(C)C(=O)O)c4csc(N)n4)C3SC2)cnc1N)Cc1ccc(O)c(O)c1` (some centres unmarked) [Compound 29] was tested, and the MIC90 was 8 mg/L (≈ 10.6 µM).

What follows are compounds tested on A. baumannii 49 in the same assay as above. Details: Acinetobacter baumannii; A. baumannii 49; read-out: MIC90.
Format: cell-based
Experimental: as §1, §2, §3, §4
Compound `CC(C)(O/N=C(\C(=O)N[C@@H]1C(=O)N2C(C(=O)[O-])=C(C[n+]3cnc(N)c(NC(=O)CCNC(=O)c4ccc(O)c(O)c4)c3)CSC12)c1csc(N)n1)C(=O)O` (some centres unmarked) [Compound 28] has an MIC90 greater than 128 mg/L.
With `CN(CCNc1c[n+](CC2=C(C(=O)[O-])N3C(=O)[C@@H](NC(=O)/C(=N\OC(C)(C)C(=O)O)c4csc(N)n4)C3SC2)cnc1N)Cc1ccc(O)c(O)c1` (some centres unmarked) [Compound 29] the MIC90 was 32 mg/L (≈ 42.3 µM).

These compounds were tested on A. baumannii 52 in the same assay as above. Details: Acinetobacter baumannii; A. baumannii 52; read-out: MIC90.
Format: cell-based
Experimental: as §1, §2, §3, §4
With `CC(C)(O/N=C(\C(=O)N[C@@H]1C(=O)N2C(C(=O)[O-])=C(C[n+]3cnc(N)c(NC(=O)CCNC(=O)c4ccc(O)c(O)c4)c3)CSC12)c1csc(N)n1)C(=O)O` (some centres unmarked) [Compound 28] the MIC90 was 16 mg/L (≈ 20.4 µM).
Work on `CN(CCNc1c[n+](CC2=C(C(=O)[O-])N3C(=O)[C@@H](NC(=O)/C(=N\OC(C)(C)C(=O)O)c4csc(N)n4)C3SC2)cnc1N)Cc1ccc(O)c(O)c1` (some centres unmarked) [Compound 29] yielded an MIC90 of 32 mg/L (≈ 42.3 µM).
